This passage reports inhibition and IC50 results from patent publication EP4768480A1, “ALKOXY THIOPHENE ACYL ARYLAMINE COMPOUNDS AND USE THEREOF” (priority 2024, dated 2025).

The first experiment deals with T1, SMS2 (Homo sapiens, UniProt Q8NHU3).
T1 construct: CAO, Yu research team, National Protein Scientific Center (Shanghai); supplied by an outside laboratory, not a commercial vendor
T1 sequence (Q8NHU3 1-365): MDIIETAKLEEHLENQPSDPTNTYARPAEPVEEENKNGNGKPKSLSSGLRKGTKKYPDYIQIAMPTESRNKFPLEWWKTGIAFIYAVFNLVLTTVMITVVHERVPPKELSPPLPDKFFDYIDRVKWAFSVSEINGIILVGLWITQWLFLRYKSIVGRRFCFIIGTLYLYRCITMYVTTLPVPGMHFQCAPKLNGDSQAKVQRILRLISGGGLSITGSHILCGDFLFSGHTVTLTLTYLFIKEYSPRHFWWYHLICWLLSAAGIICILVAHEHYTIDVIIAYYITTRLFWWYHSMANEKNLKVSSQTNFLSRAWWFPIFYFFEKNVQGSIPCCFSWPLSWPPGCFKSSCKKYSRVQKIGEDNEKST
Put plainly: SMS2 inhibitory activity in vitro, HPLC fluorescence quantitative detection (C6-NBD-ceramide to C6-NBD-SM). The format is biochemical. To be noted: 1 µM test compound; SMS2 pure enzyme; 37°C, 30 minutes; average of two measurements; read-out: Inhibition rate on SMS2 at C/µM 1. From the text: • 1. Electro-thermostatic water bath, from Shanghai Yiheng Technology Co., Ltd.); • 2. Vortex Mixer, with model ID of XW-80A, from Shanghai Jingke Industrial Co., Ltd.; • 3. […] High Performance Liquid Chromatography Agilent 1100, equipped with a quaternary pump, vacuum degassing, and FLD fluorescence detector, from Agilent Technologies, Palo Alto, CA, USA; • 5. HPLC column COSMOSIL 5C18-MS-II (4.6mm I.D. X 250mm); • 6. […] The organic solvents used in the present disclosure were purchased from Shanghai National Reagent Company, wherein methanol was pure chromatography; water was ultra-pure water which is filtrated by Milli-Q pump, deionized and ultra-filtrated with 0.22 µm membrane; and other biological consumables were purchased from domestic companies; • 8. Preparation of test compound solutions: each test compound was accurately weighed and dissolved in an appropriate volume of DMSO to prepare a 10 mmol/L stock solution. The stock solution was then diluted with an appropriate volume of DMSO to achieve the desired working concentration; • 9. SMS2 pure enzyme, DDM solution and buffer solution were provided by CAO, Yu research team from National Protein Scientific Center (Shanghai).
79 µl of the diluted enzyme solution were transferred into a 1.5 mL EP tube, 1 µl of inhibitor DMSO solution were added thereto, vortexing for 15 seconds, followed by standing at room temperature for 5 minutes. 20 µl of a mixed solution of DMPC and C6-NBD-ceramide were added, vortexing for 15 seconds, and incubated at 37°C for 30 minutes. 200 µl of anhydrous ethanol were added to quench the reaction, vortexing for 15 seconds. 200 µl of the reaction solution were taken out and stored at 4°C and avoided light for HPLC detection.
The peak area values of A(sm) and A(ceramide) in the HPLC chromatogram corresponding to C6-NBD-SM and C6-NBD-Ceramide in the DMSO group and inhibitor group samples were analyzed and recorded, and the inhibition rate of the test compound was calculated according to the following formula. Inhibition rate = (Peak area values of DMSO group−Peak area values of Inhibitor group)/(Peak area values of DMSO group) × 100% [formula]
For the compound `O=C(Nc1cccnc1)c1sccc1OCc1ccccc1-c1ccccc1` [1-94, 3-[(1,1'-Biphenyl-2-yl)methoxy]-N-(pyridin-3-yl)thiophene-2-carboxamide], the inhibition at 1 µM is 52%.

As to `O=C(Nc1cccnc1)c1sccc1OCc1cccc(C(F)(F)F)c1` [1-97, 3-(3-trifluoromethylbenzyloxy)-N-(pyridin-3-yl)thiophene-2-carboxamide], the inhibition at 1 µM was 80%.

On to `COc1ccc(OC)c(COc2ccsc2C(=O)Nc2cccnc2)c1` [1-98, 3-(2,5-dimethoxybenzyloxy)-N-(pyridin-3-yl)thiophene-2-carboxamide], for which the inhibition at 1 µM was 50%.

In the case of `O=C(Nc1cccnc1)c1cscc1OCc1ccccc1` [1-100, 4-(benzyloxy)-N-(pyridin-3-yl)thiophene-3-carboxamide], the inhibition at 1 µM came to 60%.

In the case of `CCc1ccccc1COc1ccccc1C(=O)Nc1cccnc1` [12-1 (LY93), 2-(2-ethylbenzyloxy)-N-(pyridin-3-yl)benzamide, reference compound], the inhibition at 1 µM stood at 66%.

`O=C(Nc1nncs1)c1sccc1OCc1ccccc1` [12-3, 3-benzyloxy-N-(1,3,4-thiadiazol-2-yl)thiophene-2-carboxamide]: the inhibition at 1 µM is -8%.

In the case of `O=C(Nc1cc(F)ccn1)c1sccc1OCc1ccccc1` [12-4, 3-benzyloxy-N-(4-fluoropyridin-2-yl)thiophene-2-carboxamide], the inhibition at 1 µM was 3%.

Regarding `O=C(Nc1ccc2c(c1)oc1ccccc12)c1sccc1OCc1ccccc1` [12-6, 3-(benzyloxy)-N(dibenzo[b,d]furan-3-yl)thiophene-2-carboxamide], the inhibition at 1 µM was -5%.

With `O=C(Nc1ccc2c(c1)Cc1ccccc1-2)c1sccc1OCc1ccccc1` [12-7, 3-(benzyloxy)-N-(9H-fluoren-2-yl)thiophene-2-carboxamide], the inhibition at 1 µM is -16%.

For the compound `Cc1nc(OCc2ccccc2)c(C(=O)Nc2cccnc2)s1` [12-9, 4-(benzyloxy)-2-methyl-N-(pyridin-3-yl)thiazole-5-carboxamide], the inhibition at 1 µM was -2%.

As for `O=C(Nc1cc(F)c(F)c(F)c1)c1sccc1OCc1ccccc1` [12-10], the inhibition at 1 µM is -30%.

For the compound `O=C(Nc1ccncc1)c1sccc1OCc1ccccc1` [12-11], the inhibition at 1 µM amounted to 7%.

For `Cc1ccc(NC(=O)c2sccc2OCc2ccccc2)cn1` [12-12], the inhibition at 1 µM was 7%.

In the case of `O=C(Nc1ccc(F)nc1)c1sccc1OCc1ccccc1` [12-13], the inhibition at 1 µM came to 9%.

Staying with this experiment, now noted: 10 µM test compound; SMS2 pure enzyme; 37°C, 30 minutes; average of two measurements; read-out: Inhibition rate on SMS2 at C/µM 10.
Turning to `CCCOc1ccc(OCCC)c(COc2ccsc2C(=O)Nc2cccnc2)c1` [1-93, 3-(2,5-dipropoxybenzyloxy)-N-(pyridin-3-yl)thiophene-2-carboxamide], the inhibition at 10 µM was 50%.

`CCCCOc1ccsc1C(=O)Nc1cccnc1` [1-95]: the inhibition at 10 µM came to 50%.

For the compound `CCCCCCCCOc1ccsc1C(=O)Nc1cccnc1` [1-96, 3-octyloxy-N-(pyridin-3-yl)thiophene-2-carboxamide], the inhibition at 10 µM came out at 50%.

For the compound `O=C(Nc1cccnc1)c1sccc1OCC12CC3CC(CC(C3)C1)C2` [1-99, 3-(adamantan-1-ylmethoxy)-N-(pyridin-3-yl)thiophene-2-carboxamide], the inhibition at 10 µM came to 62%.

Take `O=C(Nc1ccnnc1)c1sccc1OCc1ccccc1` [12-2, 3-benzyloxy-N-(pyridazin-4-yl)thiophene-2-carboxamide]: the inhibition at 10 µM was 23%.

Consider `O=C(Nc1cccnc1)c1sccc1OCc1ccccc1N1C(=O)c2ccccc2C1=O` [12-5, 3-(2-(1,3-dioxoisoindolin-2-yl)benzyloxy)-N-(pyridin-3-yl)thiophene-2-carboxamide], for which the inhibition at 10 µM came out at 4%.

For the compound `Cc1ccc(NC(=O)Cc2ccccc2COc2ccsc2C(=O)Nc2cccnc2)nc1` [12-8, 3-(2-(2-((5-methylpyridin-2-yl)amino)-2-oxoethyl)benzyloxy)-N-(pyridin-3-yl) thiophene-2-carboxamide], the inhibition at 10 µM was 7%.

`O=C(Nc1ccc(C(F)(F)F)nc1)c1sccc1OCc1ccccc1` [12-14]: the inhibition at 10 µM was 10%.

Staying with this experiment, now noted: SMS2 pure enzyme.
As to `CCc1ccccc1COc1ccccc1C(=O)Nc1cccnc1` [12-1 (LY93), 2-(2-ethylbenzyloxy)-N-(pyridin-3-yl)benzamide, reference compound], half-maximal inhibition (IC50) was put at 285 nM.

Broadly, the IC50 is the point on the concentration scale where inhibition reaches its midpoint.
